From patent US20250049786A1, “DOPAMINE D3/D2 RECEPTOR MODULATING COMPOUNDS” (Richter Gedeon Nyrt., priority 2023, published 2025)

What was measured:
[1] = tested on: Phencyclidine-induced hypermotility in rats; assay: Phencyclidine-induced hypermotility in rats; assay type: in vivo, rat; conditions: minimum effective dose, time spent with ambulation over one hour
Method: Spontaneous locomotor activity was measured using a six-channel activity monitor manufactured by Experimetria Ltd. (Budapest, HU). […] Additional arrays of photocells (30 pairs) were placed along opposite sides of the cage at different heights (6.5 cm, 12 cm, 18 cm and 23 cm) in order to detect rearing responses.
Test compounds were administered to study animals either orally or subcutaneously, with ten animals per treatment group. In these studies, male Harlan-Wistar rats (Toxi-Coop, Budapest, HU) weighing 190-210 grams were used. After oral administration of test compound or vehicle, animals were individually habituated to the activity monitors for 30 minutes. In the cases of subcutaneous administration of test compounds, rats were first habituated for 15 minutes to the activity monitors, then treated with the test compound or vehicle followed by replacing them into the activity monitors for an additional 15-minute period of habituation. […]
Data were analyzed using GraphPad® Prism® 9 software (GraphPad, San Diego, CA, USA). […] Drug effect was evaluated using Analysis of Variance (ANOVA, or Welch's ANOVA when appropriate) followed by Dunnett's multiple comparisons test. When appropriate, the ED50 value was determined from percent inhibition data from linear regression analysis.

[2] = Thermodynamic solubility study (RT, 24 hours); assay type: physicochemical; conditions: PBS pH = 7.4, 24 hours
Method: (§1) The resulted mixtures were shaken at room temperature (RT) for 24 hrs (to the solution equilibrium) and were filtrated on a Millipore MultiSreen Filter Plate (0.45 μ). Concentrations of the filtrates were determined by LC/UV/MS based on a 5-point calibration. (When the solid material dissolved totally in the aqueous test medium the result should be considered as a minimal value.) Results are shown in Table 2.

[3] = Thermodynamic solubility study (37° C., 4 hours); assay type: physicochemical; conditions: PBS pH = 7.4, 4 hours
Method: as §1, with “mixtures/oversaturated solutions are” for “mixtures were”, “37° C.” for “room temperature (RT)”, “4” for “24”, “are” for “were”, “μm).” for “μ).”

human 5-HT2A receptor = human 5-HT2A receptor (Homo sapiens (Human), UniProt P28223); assay: Competitive binding assay at human 5-HT2A receptors ([3H]ketanserin); conditions: CHO-K1 membranes, 1 nM [3H]ketanserin
Method: Radioactivity was determined with a MicroBeta^2® microplate counter (PerkinElmer).

human D3 receptors [4] = biological target: T1, human D3 receptors (Homo sapiens (Human), UniProt P35462); assay: Competitive binding assay at human D3 receptors using [3H]spiperone; conditions: CHO-K1 membranes, 0.7 nM [3H]spiperone
Method: Cells were scraped from the plates and centrifuged at 1000×g. […] The supernatant was collected and centrifuged at 41,000×g. The supernatant was discarded, and the pellet was resuspended in above buffer.
IC50 values were determined by a non-linear, least squares regression analysis using MathIQ™ (ID Business Solutions Ltd., Surrey, UK).

human D2L receptors [5] = biological target: T2, human D2L receptors (Homo sapiens (Human), UniProt P14416); assay: Competitive binding assay at human D2L receptors using [3H]spiperone; conditions: CHO-K1 membranes, 0.16 nM [3H]spiperone
Method: CHO-K1 cells expressing human recombinant D2L receptors were washed with phosphate-buffered saline (PBS). Cells were scraped from the plates and centrifuged at 1000×g. Cells were disrupted using a Teflon® pestle homogenizer in buffer containing 25 mM Tris-HCl, pH=7.4, 6 mM MgCl2, 1 mM EDTA, 10 mM phenylmethylsulfonyl fluoride (PMSF). The resulting suspension was centrifuged at 1000×g. The supernatant was collected and centrifuged at 41,000×g. The supernatant was discarded, and the pellet was resuspended in above buffer. The membrane preparation was then aliquoted and stored at −70° C.
Non-specific binding (NSB) was determined in the presence of 10 μM haloperidol (Sigma-Aldrich). After incubation, samples were filtered over UniFilter® GF/C plates (PerkinElmer), washed and Microscint™-20 scintillation cocktail was added. Radioactivity was determined with a MicroBeta^2® microplate counter (PerkinElmer).
From scintillation counts, NSB was subtracted to yield specific binding which was normalized to vehicle-treated samples and converted to displacement % values. IC50 values were determined by a non-linear, least squares regression analysis using MathIQ™ (ID Business Solutions Ltd., Surrey, UK).

human D3 receptors [6] = biological target: T1, human D3 receptors; assay: Competitive binding assay at human D3 receptors using [3H]raclopride; conditions: CHO-K1 membranes, ca. […] [3H]raclopride
Method: (§2) The membrane preparation was then aliquoted and stored at −70° C.

human D2L receptors [7] = biological target: T2, human D2L receptors; assay: Competitive binding assay at human D2L receptors using [3H]raclopride; conditions: CHO-K1 membranes, 2 nM [3H]raclopride
Method: as §2

T1 sequence (P35462 whole entry): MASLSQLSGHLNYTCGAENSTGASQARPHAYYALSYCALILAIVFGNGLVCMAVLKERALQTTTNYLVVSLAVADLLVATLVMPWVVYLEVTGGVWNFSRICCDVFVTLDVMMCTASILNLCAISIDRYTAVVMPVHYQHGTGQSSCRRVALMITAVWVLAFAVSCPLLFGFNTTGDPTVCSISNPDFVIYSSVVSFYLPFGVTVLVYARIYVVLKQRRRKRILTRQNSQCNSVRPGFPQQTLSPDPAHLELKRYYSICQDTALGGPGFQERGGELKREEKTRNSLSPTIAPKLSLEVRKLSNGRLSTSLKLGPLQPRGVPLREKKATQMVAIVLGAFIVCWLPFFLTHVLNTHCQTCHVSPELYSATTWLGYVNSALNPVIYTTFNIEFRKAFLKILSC
T2 sequence (P14416 whole entry): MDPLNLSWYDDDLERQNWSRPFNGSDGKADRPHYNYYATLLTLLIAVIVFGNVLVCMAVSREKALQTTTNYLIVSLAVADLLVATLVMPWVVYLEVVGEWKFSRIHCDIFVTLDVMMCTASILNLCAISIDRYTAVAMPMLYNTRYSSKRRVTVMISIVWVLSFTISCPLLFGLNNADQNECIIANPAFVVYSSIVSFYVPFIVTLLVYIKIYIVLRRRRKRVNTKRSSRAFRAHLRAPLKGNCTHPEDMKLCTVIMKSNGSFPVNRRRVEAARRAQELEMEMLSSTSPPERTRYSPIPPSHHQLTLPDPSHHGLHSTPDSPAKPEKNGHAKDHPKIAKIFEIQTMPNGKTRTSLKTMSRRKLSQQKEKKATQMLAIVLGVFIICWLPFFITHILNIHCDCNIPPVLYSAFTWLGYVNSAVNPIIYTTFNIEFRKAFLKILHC
Chain of human 5-HT2A receptor (P28223 whole entry): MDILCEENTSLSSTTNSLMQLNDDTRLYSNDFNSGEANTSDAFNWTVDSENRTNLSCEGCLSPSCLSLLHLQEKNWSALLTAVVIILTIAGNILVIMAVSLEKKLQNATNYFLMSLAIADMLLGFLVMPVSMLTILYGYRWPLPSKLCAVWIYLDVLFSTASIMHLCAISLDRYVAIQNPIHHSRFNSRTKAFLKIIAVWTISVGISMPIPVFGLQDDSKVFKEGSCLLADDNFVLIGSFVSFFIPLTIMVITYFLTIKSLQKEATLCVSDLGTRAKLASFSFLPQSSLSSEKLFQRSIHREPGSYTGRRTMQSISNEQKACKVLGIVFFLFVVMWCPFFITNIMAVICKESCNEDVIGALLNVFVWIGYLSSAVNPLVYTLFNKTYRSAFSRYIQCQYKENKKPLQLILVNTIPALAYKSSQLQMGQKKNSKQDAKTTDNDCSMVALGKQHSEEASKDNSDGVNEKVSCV

Compound | Thermodynamic sol. [2] | Thermodynamic sol. [3] | 5-HT2A pKi (human 5-HT2A receptor) | D3 pKi [3H] spiperone (human D3 receptors [4]) | D2L pKi [3H]spiperone (human D2L receptors [5]) | D3 pKi [3H]raclopride (human D3 receptors [6]) | D2L pKi [3H]raclopride (human D2L receptors [7]) | PCP (MED, mg/kg) [1]
CCOCN(C)C(=O)N[C@H]1CC[C@H](CCN2CCN(c3cccc(Cl)c3Cl)CC2)CC1 [Example 1, N′-[(1r,4r)-4-{2-[4-(2,3-dichlorophenyl)piperazin-1-yl]ethyl}cyclohexyl]-N-(ethoxymethyl)-N-methylurea] | 45.3 ± 0.6 µM | 10.9 ± 0.3 µM | 7.64 | – | – | – | – | 0.4 mg/kg
COCN(C)C(=O)N[C@H]1CC[C@H](CCN2CCN(c3cccc(Cl)c3Cl)CC2)CC1 [Example 2, N′-[(1r,4r)-4-{2-[4-(2,3-dichlorophenyl)piperazin-1-yl]ethyl}cyclohexyl]-N-(methoxymethyl)-N-methylurea] | 50.93 ± 2.3 µM | 58.93 ± 5.32 µM | 7.81 | 9.77 | 8.93 | 9.15 | 8.90 | –
CN(C)C(=O)N[C@H]1CC[C@H](CCN2CCN(c3cccc(Cl)c3Cl)CC2)CC1 [Ref. Ex. 2, N′-[(1r,4r)-4-{2-[4-(2,3-dichlorophenyl)piperazin-1-yl]ethyl}cyclohexyl]-N,N-dimethylurea, reference compound] | – | – | – | – | – | – | – | 0.1 mg/kg

Second part, led by results:

Thermodynamic sol. [2] | Thermodynamic sol. [3] | 5-HT2A pKi (human 5-HT2A receptor) | D3 pKi [3H] spiperone (human D3 receptors [4]) | D2L pKi [3H]spiperone (human D2L receptors [5]) | D3 pKi [3H]raclopride (human D3 receptors [6]) | D2L pKi [3H]raclopride (human D2L receptors [7]) | Compound | PCP (MED, mg/kg) [1]
39.68 ± 2.15 µM | 30.50 ± 3.06 µM | – | 9.74 | 8.93 | – | 8.94 | CCCOCN(C)C(=O)N[C@H]1CC[C@H](CCN2CCN(c3cccc(Cl)c3Cl)CC2)CC1 [Example 3, N′-[(1r,4r)-4-{2-[4-(2,3-dichlorophenyl)piperazin-1-yl]ethyl}cyclohexyl]-N-methyl-N-(propoxymethyl)urea] | –
6.2 ± 0.3 µM | 4.9 ± 0.3 µM | – | – | – | – | – | CCCN(C)C(=O)N[C@H]1CC[C@H](CCN2CCN(c3cccc(Cl)c3Cl)CC2)CC1 [Ref. Ex. 1, N-[(1r,4r)-4-{2-[4 (2,3-dichlorophenyl)piperazin-1-yl]ethyl}cyclohexyl]-N-methyl-N-propylurea, reference compound] | –
